From the supplement of paper PMC10307832

Key:
Test in all cases: relative viability (nuclei count vs DMSO), 5 days (fraction); higher = more cells survive
NCI-H1563 = tested on: NCI-H1563
Procedure, shortened: (§1)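 Relative viability divides the nuclei count in treated wells by that in vehicle wells. Lung cancer cell lines were seeded in 1536-well plates, dosed by pin tool the next day, and fixed and stained after 5 days in one step with final 0.05% Triton X-100, 1% formaldehyde and 1 ug/ml Hoechst. Dosing was a single drug or a fixed anchor-drug dose plus five library-drug doses (not always all listed) in √10 steps, and values are medians of duplicate plates imaged at 4×.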

NCI-H522 = tested on: NCI-H522
Procedure, shortened: as §1

SW 900 = tested on: SW 900
Procedure, shortened: as §1

NCI-H1648 = tested on: NCI-H1648
Procedure, shortened: as §1

NCI-H2342 = tested on: NCI-H2342
Procedure, shortened: as §1

NCI-H1623 = tested on: NCI-H1623
Procedure, shortened: as §1

Question: How did the relative viability (NCI-H1563; first compound 0.08 µM) turn out when `O=c1[nH]c2ccccc2n1C1CCN(CCCC(c2ccc(F)cc2)c2ccc(F)cc2)CC1` [Pimozide] + COc1cccc2cc(-c3nc([C@H]4CC[C@H](C(=O)O)CC4)n4ncnc(N)c34)[nH]c12 [OSI-027] (partner 0.5 µM) was run?
Answer: The relative viability was 0.75.

Question: What about the relative viability (NCI-H1563; first compound 0.253 µM) of the same molecule?
Answer: Its relative viability is 0.767.

Question: And the relative viability (NCI-H1563; first compound 0.8 µM)?
Answer: Its relative viability is 0.817.

Question: What about the relative viability (NCI-H1563; first compound 2.53 µM) of the same molecule?
Answer: The relative viability was 0.664.

Question: And the relative viability (NCI-H1563; first compound 8 µM)?
Answer: Its relative viability is 0.719.

Question: What about the relative viability (NCI-H522; first compound 0.08 µM) of the same molecule?
Answer: The relative viability was 0.682.

Question: And the relative viability (NCI-H522; first compound 0.253 µM)?
Answer: The relative viability was 0.586.

Question: And the relative viability (NCI-H522; first compound 0.8 µM)?
Answer: The relative viability was 0.54.

Question: And the relative viability (NCI-H522; first compound 2.53 µM)?
Answer: Its relative viability is 0.829.

Question: What about the relative viability (NCI-H522; first compound 8 µM) of the same molecule?
Answer: The relative viability was 0.682.

Question: And the relative viability (SW 900; first compound 0.08 µM)?
Answer: Its relative viability is 0.879.

Question: And the relative viability (SW 900; first compound 0.253 µM)?
Answer: The relative viability was 0.581.

Question: What about the relative viability (SW 900; first compound 0.8 µM) of the same molecule?
Answer: The relative viability was 0.273.

Question: And the relative viability (SW 900; first compound 2.53 µM)?
Answer: The relative viability was 0.475.

Question: And the relative viability (SW 900; first compound 8 µM)?
Answer: Its relative viability is 0.384.

Question: And the relative viability (NCI-H1648; first compound 0.08 µM)?
Answer: Its relative viability is 0.275.

Question: And the relative viability (NCI-H1648; first compound 0.253 µM)?
Answer: The relative viability was 0.264.

Question: What about the relative viability (NCI-H1648; first compound 0.8 µM) of the same molecule?
Answer: The relative viability was 0.272.

Question: What about the relative viability (NCI-H1648; first compound 8 µM) of the same molecule?
Answer: The relative viability was 0.279.

Question: And the relative viability (NCI-H2342; first compound 0.08 µM)?
Answer: The relative viability was 0.63.

Question: And the relative viability (NCI-H2342; first compound 0.253 µM)?
Answer: The relative viability was 0.623.

Question: What about the relative viability (NCI-H2342; first compound 0.8 µM) of the same molecule?
Answer: The relative viability was 0.615.

Question: And the relative viability (NCI-H2342; first compound 2.53 µM)?
Answer: Its relative viability is 0.543.

Question: And the relative viability (NCI-H2342; first compound 8 µM)?
Answer: Its relative viability is 0.599.

Question: And the relative viability (NCI-H1623; first compound 0.08 µM)?
Answer: Its relative viability is 0.348.

Question: And the relative viability (NCI-H1623; first compound 0.253 µM)?
Answer: The relative viability was 0.48.

Question: And the relative viability (NCI-H1623; first compound 0.8 µM)?
Answer: Its relative viability is 0.374.

Question: What about the relative viability (NCI-H1623; first compound 2.53 µM) of the same molecule?
Answer: The relative viability was 0.416.

Question: What about the relative viability (NCI-H1623; first compound 8 µM) of the same molecule?
Answer: The relative viability was 0.389.
